{
  "source": "patent US20210308211A1",
  "about": "“METHOD OF TREATING VIRAL INFECTIONS” (priority 2020, published 2021)",
  "test_system": "Lewis rats",
  "experiment": "Chronic-EAN rat model of CIDP",
  "details": "100 μg/rat i.p.",
  "note": "Non-standard residues stand in square brackets, D forms with d. Residues, ends and D or L forms follow the SMILES beside them. pS = N[C@@H](COP(=O)(O)O)C(=O)O",
  "procedure": "Male Lewis rats, 7-8 weeks old, weighing 250-270 g, purchased from Charles River (Domaine des Oncins, L′Arbresle, France) were used.\nBody weight and clinical scores are assessed daily until 60 days post-immunization (dpi). Severity of paresis is graded as follows: 0=no illness; 1=flaccid tail; 2=moderate paraparesis; 3=severe paraparesis; 4=tetraparesis; 5=death.\n100 μg/rat P140 peptide in 500 μL water/saline (1:10) were intraperitoneally injected at 5, 7, 9, 13 dpi and 3 times per week from 22 dpi until the end of the study.",
  "data": [
    {"smiles": "CC[C@H](C)[C@H](NC(=O)[C@H](Cc1ccccc1)NC(=O)[C@H](C)NC(=O)[C@H](Cc1ccc(O)cc1)NC(=O)CNC(=O)[C@H](CCCNC(=N)N)NC(=O)[C@@H]1CCCN1C(=O)[C@H](CCCCN)NC(=O)CNC(=O)[C@H](COP(=O)(O)O)NC(=O)[C@H](CCCNC(=N)N)NC(=O)[C@H](CCCCN)NC(=O)[C@H](CO)NC(=O)[C@H](Cc1ccc(O)cc1)NC(=O)[C@@H](NC(=O)[C@H](CCSC)NC(=O)[C@H](Cc1c[nH]cn1)NC(=O)[C@@H](NC(=O)[C@@H](N)CCCNC(=N)N)[C@@H](C)CC)C(C)C)C(=O)N[C@@H](CCC(=O)O)C(=O)N[C@@H](Cc1ccc(O)cc1)C(=O)O", "note": "[Compound P140] (H-RIHMVYSKR[pS]GKPRGYAFIEY-OH; N-terminus and C-terminus assumed)", "values": [
      {"measurement": "Chronicity of the disease", "result": "seems abolish the chronicity"},
      {"measurement": "Maximal clinical scores", "setting": "compared to untreated rats", "result": "decreased"},
      {"measurement": "Onset of the disease", "setting": "compared to untreated rats", "result": "delayed"},
      {"measurement": "Weight loss during the disease course", "setting": "compared to untreated rats", "result": "less important"}
    ]}
  ]
}
